US10167262B2, “Herbicidal substituted 3-arylpyrazoles” (FMC CORPORATION, priority 2014, dated 2019)

Key:
Assay type in all cases: in vivo
[1] = system: green foxtail (Setaria viridis); experiment: Test C postemergence greenhouse test, plant response rating 0-100; settings: for Plant response rating, Foxtail, Green: scale 0 to 100
How it was run: (§1)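 Formulated compounds applied postemergence; plants 1- to 4-leaf stage. Evaluated visually vs. untreated controls after roughly two weeks (13–15 d) under greenhouse conditions; 100 denotes complete control.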

[2] = system: deadnettle (henbit deadnettle, Lamium amplexicaule); experiment: as above; settings: for Plant response rating, Deadnettle: scale 0 to 100
How it was run: as §1

[3] = system: woolly cupgrass (Eriochloa villosa); experiment: as above; settings: for Plant response rating, Cupgrass, Woolly: scale 0 to 100
How it was run: as §1

[4] = system: windgrass (Apera spica-venti); experiment: as above; settings: for Plant response rating, Windgrass: scale 0 to 100
How it was run: as §1

[5] = system: downy bromegrass (Bromus tectorum); experiment: as above; settings: for Plant response rating, Bromegrass, Downy: scale 0 to 100
How it was run: as §1

[6] = system: goosegrass (Eleusine indica); experiment: as above; settings: for Plant response rating, Goosegrass: scale 0 to 100
How it was run: as §1

[7] = system: winter barley (Hordeum vulgare); experiment: as above; settings: for Plant response rating, Barley: scale 0 to 100
How it was run: as §1

[8] = system: canarygrass (Phalaris minor); experiment: as above; settings: for Plant response rating, Canarygrass: scale 0 to 100
How it was run: as §1

[9] = system: ducksalad (Heteranthera limosa); experiment: Test B flooded paddy test, plant response rating 0-100; settings: Flood, 250 g ai/ha; scale 0 to 100 (0 no effect, 100 complete control); 13 to 15 days
How it was run: (§2)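 Test compounds are applied straight into paddy water held 3 cm above the soil surface, with that flood maintained for the whole test. After 13 to 15 days in the greenhouse, each species is scored visually relative to controls.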

rice (Oryza sativa) = experiment: as above; settings: Flood, 250 g ai/ha; scale 0 to 100 (0 no effect, 100 complete control); 13 to 15 days
How it was run: as §2

[10] = system: barnyardgrass (Echinochloa crus-galli); experiment: as above; settings: Flood, 250 g ai/ha; scale 0 to 100 (0 no effect, 100 complete control); 13 to 15 days
How it was run: as §2

[11] = system: sedge, umbrella (small-flower umbrella sedge, Cyperus difformis); experiment: as above; settings: Flood, 250 g ai/ha; scale 0 to 100 (0 no effect, 100 complete control); 13 to 15 days
How it was run: as §2

soybean (Glycine max) = experiment: Test E pre-/postemergence greenhouse test, plant response rating 0-100; settings: Postemergence, scale 0 to 100
How it was run: (§3)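 Pre: seeded silt loam sprayed; post: 1–4-leaf plants (2–18 cm) in peat-based mix sprayed. Formulation: non-phytotoxic solvent + surfactant. Greenhouse 14–21 d; visual rating vs controls, 0 = no effect, 100 = complete control.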

[12] = system: fall panicum (Panicum dichotomiflorum); experiment: as above; settings: Postemergence, scale 0 to 100
How it was run: as §3

Fc1cccc(NN=C(c2ccccc2)c2c[nH]nc2-c2cc(Cl)cc(Cl)c2)c1 [Compound 58]
5: Plant response rating, Goosegrass ([6]; 500 g ai/ha)
0: Plant response rating (0 to 100), Foxtail, Green ([1]; 62 g ai/ha) | Plant response rating (0 to 100), Foxtail, Green ([1]; 125 g ai/ha) | Plant response rating, Foxtail, Green ([1]; 250 g ai/ha) | Plant response rating (0 to 100), Deadnettle ([2]; 62 g ai/ha) | Plant response rating (0 to 100), Deadnettle ([2]; 125 g ai/ha) | Plant response rating, Deadnettle ([2]; 250 g ai/ha) | Plant response rating, Deadnettle ([2]; 500 g ai/ha) | Plant response rating (0 to 100), Cupgrass, Woolly ([3]; 62 g ai/ha) | Plant response rating (0 to 100), Cupgrass, Woolly ([3]; 125 g ai/ha) | Plant response rating, Cupgrass, Woolly ([3]; 250 g ai/ha) | Plant response rating, Cupgrass, Woolly ([3]; 500 g ai/ha) | Plant response rating (0 to 100), Windgrass ([4]; 62 g ai/ha) | Plant response rating (0 to 100), Windgrass ([4]; 125 g ai/ha) | Plant response rating, Windgrass ([4]; 250 g ai/ha) | Plant response rating, Windgrass ([4]; 500 g ai/ha) | Plant response rating (0 to 100), Bromegrass, Downy ([5]; 62 g ai/ha) | Plant response rating (0 to 100), Bromegrass, Downy ([5]; 125 g ai/ha) | Plant response rating, Bromegrass, Downy ([5]; 250 g ai/ha) | Plant response rating, Bromegrass, Downy ([5]; 500 g ai/ha) | Plant response rating (0 to 100), Goosegrass ([6]; 62 g ai/ha) | Plant response rating (0 to 100), Goosegrass ([6]; 125 g ai/ha) | Plant response rating, Goosegrass ([6]; 250 g ai/ha) | Plant response rating (0 to 100), Barley ([7]; 62 g ai/ha) | Plant response rating (0 to 100), Barley ([7]; 125 g ai/ha) | Plant response rating, Barley ([7]; 250 g ai/ha) | Plant response rating, Barley ([7]; 500 g ai/ha) | Plant response rating (0 to 100), Canarygrass ([8]; 62 g ai/ha) | Plant response rating (0 to 100), Canarygrass ([8]; 125 g ai/ha) | Plant response rating, Canarygrass ([8]; 250 g ai/ha) | Plant response rating, Canarygrass ([8]; 500 g ai/ha) | Plant response rating, Ducksalad [9] | Plant response rating, Rice (rice (Oryza sativa)) | Plant response rating, Barnyardgrass [10] | Plant response rating, Sedge, Umbrella [11] | Plant response rating, Soybean (soybean (Glycine max); 31 g ai/ha) | Plant response rating, Soybean (soybean (Glycine max); 62 g ai/ha) | Plant response rating, Soybean (soybean (Glycine max); 125 g ai/ha) | Plant response rating, Soybean (soybean (Glycine max); 250 g ai/ha) | Plant response rating, Soybean (soybean (Glycine max); 500 g ai/ha) | Plant response rating, Panicum, Fall ([12]; 31 g ai/ha) | Plant response rating, Panicum, Fall ([12]; 250 g ai/ha)
30: Plant response rating, Foxtail, Green ([1]; 500 g ai/ha)

Fc1ccc(NN=C(c2ccccc2)c2c[nH]nc2-c2cc(Cl)cc(Cl)c2)cc1 [Compound 35]
20: Plant response rating, Foxtail, Green ([1]; 500 g ai/ha)
0: Plant response rating (0 to 100), Foxtail, Green ([1]; 62 g ai/ha) | Plant response rating (0 to 100), Foxtail, Green ([1]; 125 g ai/ha) | Plant response rating, Foxtail, Green ([1]; 250 g ai/ha) | Plant response rating (0 to 100), Deadnettle ([2]; 62 g ai/ha) | Plant response rating (0 to 100), Deadnettle ([2]; 125 g ai/ha) | Plant response rating, Deadnettle ([2]; 250 g ai/ha) | Plant response rating, Deadnettle ([2]; 500 g ai/ha) | Plant response rating (0 to 100), Windgrass ([4]; 62 g ai/ha) | Plant response rating (0 to 100), Windgrass ([4]; 125 g ai/ha) | Plant response rating, Windgrass ([4]; 250 g ai/ha) | Plant response rating, Windgrass ([4]; 500 g ai/ha) | Plant response rating (0 to 100), Bromegrass, Downy ([5]; 62 g ai/ha) | Plant response rating (0 to 100), Bromegrass, Downy ([5]; 125 g ai/ha) | Plant response rating, Bromegrass, Downy ([5]; 250 g ai/ha) | Plant response rating, Bromegrass, Downy ([5]; 500 g ai/ha) | Plant response rating (0 to 100), Goosegrass ([6]; 62 g ai/ha) | Plant response rating (0 to 100), Goosegrass ([6]; 125 g ai/ha) | Plant response rating, Goosegrass ([6]; 250 g ai/ha) | Plant response rating, Goosegrass ([6]; 500 g ai/ha) | Plant response rating (0 to 100), Barley ([7]; 62 g ai/ha) | Plant response rating (0 to 100), Barley ([7]; 125 g ai/ha) | Plant response rating, Barley ([7]; 250 g ai/ha) | Plant response rating, Barley ([7]; 500 g ai/ha) | Plant response rating (0 to 100), Canarygrass ([8]; 62 g ai/ha) | Plant response rating (0 to 100), Canarygrass ([8]; 125 g ai/ha) | Plant response rating, Canarygrass ([8]; 250 g ai/ha) | Plant response rating, Canarygrass ([8]; 500 g ai/ha) | Plant response rating, Ducksalad [9] | Plant response rating, Rice (rice (Oryza sativa)) | Plant response rating, Barnyardgrass [10] | Plant response rating, Sedge, Umbrella [11] | Plant response rating, Soybean (soybean (Glycine max); 31 g ai/ha) | Plant response rating, Soybean (soybean (Glycine max); 62 g ai/ha) | Plant response rating, Soybean (soybean (Glycine max); 125 g ai/ha) | Plant response rating, Soybean (soybean (Glycine max); 250 g ai/ha) | Plant response rating, Soybean (soybean (Glycine max); 500 g ai/ha)
5: Plant response rating (0 to 100), Cupgrass, Woolly ([3]; 62 g ai/ha) | Plant response rating (0 to 100), Cupgrass, Woolly ([3]; 125 g ai/ha) | Plant response rating, Cupgrass, Woolly ([3]; 250 g ai/ha) | Plant response rating, Cupgrass, Woolly ([3]; 500 g ai/ha)
